Test results reported in patent US6710048B2, “Pyrazine derivatives as modulators of tyrosine kinases” (Ortho-McNeil Pharmaceutical, Inc., priority 2000, dated 2004).

Assays:
Type in all cases: biochemical
PKC-γ = molecular target: T1, PKC-γ (Homo sapiens, UniProt P05129); assay: PKC-γ kinase selectivity assay; conditions: Table 4 kinase selectivity; read-out: IC50, Assay 6 PKC-γ
T1 construct: purchased BIOMOL SE-143; host or cells: insect cells
Description: (§1) Assays to test compound inhibition of other kinases were preformed using methods that measure the amount of phosphorylation of a biotinylated peptide substrate. Biotinylated peptide substrates were selected from the literature as appropriate for the enzyme being evaluated. […] Assay conditions vary slightly for each protein kinase, for example, insulin receptor kinase requires 10 mM MnCl2 for activity and Calmodulin-dependent protein kinase requires calmodulin and 2 mM CaCl2. The reaction mixture was dispensed into the wells of a streptavidin coated Flashplate and 1 μl drug stock in 100% DMSO was added to a 100 μl reaction volume resulting in a final concentration of 1% DMSO in the reaction. Enzyme was diluted in 50 mM Tris-HCl pH=8.0, 0.1% BSA and added to each well. The reaction was incubated for one hour at 30° C. in the presence of compound. After one hour the reaction mix was aspirated from the plate and the plate was washed with PBS containing 100 mM EDTA. The plate was read on a scintillation counter to determine ^33P-γ-ATP incorporated into the immobilized peptide. Test compounds were assayed in duplicate at 8 concentrations [100 tM, 10 μM, 1 μM, 100 nM, 10 nM, 1 nM, 100 μM, 10 μM]. A maximum and minimum signal for the assay was determined on each plate. The IC50 was calculated from the dose response curve of the percent inhibition of the maximum signal in the assay according to the formula [max signal−background/test compound signal−background (100)=% inhibition] by graphing the percent inhibition against the log concentration of test compound. Known inhibitor compounds appropriate for the kinase being assayed were also included on each plate.
VEGF-R (vascular endothelial growth factor receptor-2) is a fusion protein containing a polyhistidine tag at the N-terminus followed by amino acids 786-1343 of the rat VEGF-R2 kinase domain (GenBank Accession #U93306). CDK1 (cyclin dependent kinase 1) is isolated from insect cells expressing both the human CDK1 catalytic subunit and its positive regulatory subunit cyclin B (New England Biolabs, Beverly, Mass., Cat. #6020). CDK4 (cyclin dependent kinase 4) contains amino acids 769 to 921 of the mouse […] protein found in the GST-retinoblastoma protein construct (Santa Cruz Biotechnology, Santa Cruz, Calif.; Cat. #SC-4112). Insulin Receptor Kinase consists of residues 941-1313 of the cytoplasmic domain of the beta-subunit of the human insulin receptor (BIOMOL, Plymouth Meeting, Pa., Cat. #SE-195). Protein Kinase A is the catalytic subunit of cAMP dependent protein kinase-A purified from bovine heart (Upstate Biotech, Lake Placid, N.Y., Cat#14-114). PKC (protein kinase-C) is the gamma or beta isoform of the human protein produced in insect cells (BIOMOL, Plymouth Meeting, Pa., Cat. #SE-143). Casein Kinase 1 is a truncation at amino acid 318 of the C-terminal portion of the rat CK1 delta isoform produced in E.coli (New England Biolabs, Beverly, Mass., Cat. #6030). Casein Kinase 2 includes the alpha and beta subunits of the human CK2 protein produced in E.coli (New England Biolabs, Beverly, Mass., Cat. #6010). Calmodulin Kinase (calmodulin-dependent protein kinase 2) is a truncated version of the alpha subunit of the rat protein produced in insect cells (New England Biolabs, Beverly, Mass., Cat. #6060). Glycogen Synthase Kinase-3 is the beta isoform of the rabbit enzyme produced in E. coli (New England Biolabs, Beverly, Mass., Cat. #6040). MAP Kinase is the rat ERK-2 isoform containing a polyhistidine tag at the N-terminus produced in E. coli. and activated by phosphorylation with MEK1 prior to purification (BIOMOL, Plymouth Meeting, Pa., Cat. #SE-137). EGFR (epidermal growth factor receptor) is purified from human A431 cell membranes (Sigma, St. Louis, Mo., Cat.# E3641). PDGF-R (platelet derived growth factor receptor) is a fusion protein containing a polyhistidine tag at the N-terminus followed by nucleotides 1874-3507 of the human PDGF-R beta subunit kinase domain (Accession #M21616). […]

HER2 = HER2 (Homo sapiens, UniProt P04626); assay: HER2 kinase selectivity assay; conditions: Table 4 kinase selectivity; read-out: IC50, Assay 16 HER2
Description: Assays to test compound inhibition of other kinases were preformed using methods that measure the amount of phosphorylation of a biotinylated peptide substrate. Biotinylated peptide substrates were selected from the literature as appropriate for the enzyme being evaluated. The general procedure used to assay for kinase activity is as follows: A kinase reaction mix was prepared in 50 mM Tris-HCl pH=8, 10 mM MgCl2, 0.1 mM NaVO4, 1 mM DTT, 5-10 μM ATP, 0.25-1 μM biotinylated peptide substrate, 0.2-0.8 μCuries per well ^33P-γ-ATP [2000-3000 Ci/mmol]. Assay conditions vary slightly for each protein kinase, for example, insulin receptor kinase requires 10 mM MnCl2 for activity and Calmodulin-dependent protein kinase requires calmodulin and 2 mM CaCl2. The reaction mixture was dispensed into the wells of a streptavidin coated Flashplate and 1 μl drug stock in 100% DMSO was added to a 100 μl reaction volume resulting in a final concentration of 1% DMSO in the reaction. Enzyme was diluted in 50 mM Tris-HCl pH=8.0, 0.1% BSA and added to each well. The reaction was incubated for one hour at 30° C. in the presence of compound. After one hour the reaction mix was aspirated from the plate and the plate was washed with PBS containing 100 mM EDTA. The plate was read on a scintillation counter to determine ^33P-γ-ATP incorporated into the immobilized peptide. Test compounds were assayed in duplicate at 8 concentrations [100 tM, 10 μM, 1 μM, 100 nM, 10 nM, 1 nM, 100 μM, 10 μM]. A maximum and minimum signal for the assay was determined on each plate. The IC50 was calculated from the dose response curve of the percent inhibition of the maximum signal in the assay according to the formula [max signal−background/test compound signal−background (100)=% inhibition] by graphing the percent inhibition against the log concentration of test compound. Known inhibitor compounds appropriate for the kinase being assayed were also included on each plate.

[1] = molecular target: CDK4 (cyclin dependent kinase 4) (Homo sapiens, UniProt P11802); assay: CDK4 kinase selectivity assay; conditions: Table 4 kinase selectivity; 10 = approximate value; read-out: IC50, Assay 3 CDK4
Description: as §1
VEGF-R (vascular endothelial growth factor receptor-2) is a fusion protein containing a polyhistidine tag at the N-terminus followed by amino acids 786-1343 of the rat VEGF-R2 kinase domain (GenBank Accession #U93306). CDK1 (cyclin dependent kinase 1) is isolated from insect cells expressing both the human CDK1 catalytic subunit and its positive regulatory subunit cyclin B (New England Biolabs, Beverly, Mass., Cat. #6020). CDK4 (cyclin dependent kinase 4) contains amino acids 769 to 921 of the mouse […] protein found in the GST-retinoblastoma protein construct (Santa Cruz Biotechnology, Santa Cruz, Calif.; Cat. #SC-4112). Insulin Receptor Kinase consists of residues 941-1313 of the cytoplasmic domain of the beta-subunit of the human insulin receptor (BIOMOL, Plymouth Meeting, Pa., Cat. #SE-195). Protein Kinase A is the catalytic subunit of cAMP dependent protein kinase-A purified from bovine heart (Upstate Biotech, Lake Placid, N.Y., Cat#14-114). PKC (protein kinase-C) is the gamma or beta isoform of the human protein produced in insect cells (BIOMOL, Plymouth Meeting, Pa., Cat. #SE-143). […]

Chain of HER2 (P04626 23-1255, species assumed): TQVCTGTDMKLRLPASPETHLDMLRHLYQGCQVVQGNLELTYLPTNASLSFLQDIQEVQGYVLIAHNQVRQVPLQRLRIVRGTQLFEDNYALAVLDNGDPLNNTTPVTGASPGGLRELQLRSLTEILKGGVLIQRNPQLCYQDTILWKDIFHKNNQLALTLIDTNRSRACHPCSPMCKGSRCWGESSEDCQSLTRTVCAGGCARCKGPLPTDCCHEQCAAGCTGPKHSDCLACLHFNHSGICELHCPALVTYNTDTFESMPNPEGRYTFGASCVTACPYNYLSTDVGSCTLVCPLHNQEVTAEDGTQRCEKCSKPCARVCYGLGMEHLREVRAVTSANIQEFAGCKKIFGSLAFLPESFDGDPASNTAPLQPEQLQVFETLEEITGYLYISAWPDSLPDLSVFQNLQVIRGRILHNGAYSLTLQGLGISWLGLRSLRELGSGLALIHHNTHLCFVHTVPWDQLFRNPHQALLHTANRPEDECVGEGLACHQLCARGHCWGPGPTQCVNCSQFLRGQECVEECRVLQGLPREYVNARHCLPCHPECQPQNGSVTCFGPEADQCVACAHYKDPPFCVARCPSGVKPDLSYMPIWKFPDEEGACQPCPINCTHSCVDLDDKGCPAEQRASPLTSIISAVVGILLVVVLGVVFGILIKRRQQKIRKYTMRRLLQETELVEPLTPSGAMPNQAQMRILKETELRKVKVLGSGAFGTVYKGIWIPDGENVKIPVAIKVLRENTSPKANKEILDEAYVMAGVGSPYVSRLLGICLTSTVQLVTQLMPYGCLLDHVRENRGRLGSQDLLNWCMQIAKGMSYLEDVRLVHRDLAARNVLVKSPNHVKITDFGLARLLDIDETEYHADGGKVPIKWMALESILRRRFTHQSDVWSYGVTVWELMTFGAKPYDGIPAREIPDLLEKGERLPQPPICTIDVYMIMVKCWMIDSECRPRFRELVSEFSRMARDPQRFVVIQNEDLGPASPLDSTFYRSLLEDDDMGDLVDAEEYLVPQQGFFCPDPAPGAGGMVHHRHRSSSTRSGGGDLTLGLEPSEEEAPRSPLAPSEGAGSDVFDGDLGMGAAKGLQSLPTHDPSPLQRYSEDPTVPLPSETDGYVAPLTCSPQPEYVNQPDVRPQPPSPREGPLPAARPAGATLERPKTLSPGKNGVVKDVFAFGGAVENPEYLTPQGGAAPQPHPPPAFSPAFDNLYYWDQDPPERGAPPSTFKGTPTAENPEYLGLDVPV
Chain of CDK4 (cyclin dependent kinase 4) (P11802 whole entry, species assumed): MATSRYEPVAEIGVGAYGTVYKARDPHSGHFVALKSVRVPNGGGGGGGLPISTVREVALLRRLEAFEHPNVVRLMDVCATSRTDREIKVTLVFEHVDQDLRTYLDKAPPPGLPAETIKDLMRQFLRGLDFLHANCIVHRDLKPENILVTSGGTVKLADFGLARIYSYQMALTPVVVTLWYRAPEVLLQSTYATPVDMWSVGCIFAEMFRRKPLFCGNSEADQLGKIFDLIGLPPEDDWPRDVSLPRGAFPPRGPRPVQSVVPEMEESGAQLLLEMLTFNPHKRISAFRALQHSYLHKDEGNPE
Chain of CDK4 (cyclin dependent kinase 4) (P24385 whole entry partner, species assumed): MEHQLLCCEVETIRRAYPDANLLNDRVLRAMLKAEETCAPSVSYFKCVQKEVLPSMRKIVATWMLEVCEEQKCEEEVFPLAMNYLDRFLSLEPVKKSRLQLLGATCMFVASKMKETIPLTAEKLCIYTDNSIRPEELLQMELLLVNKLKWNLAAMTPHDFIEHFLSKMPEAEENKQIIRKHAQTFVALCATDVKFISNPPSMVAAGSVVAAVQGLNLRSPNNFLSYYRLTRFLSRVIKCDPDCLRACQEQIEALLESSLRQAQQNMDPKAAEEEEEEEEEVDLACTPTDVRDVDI

SMILES	IC50 (PKC-γ) [µM]	IC50 (HER2) [µM]	IC50 [1] [µM]
O=C(NCCCO)c1cncc(-c2cncc(Nc3cccc(Cl)c3)n2)c1 [Cmd 39]	> 100	–	–
Clc1cccc(Nc2cncc(-c3cncc(NCCCn4cncn4)c3)n2)c1 [Cmd 76]	–	2.24	–
OCCCCNc1cncc(-c2cncc(Nc3cccc(Cl)c3)n2)c1 [Cmd 32]	> 100	–	> 10
OCCCNc1cncc(-c2cncc(Nc3cccc(Cl)c3)n2)c1 [Cmd 4]	> 100	–	~10
Clc1cccc(Nc2cncc(-c3cncc(NCCCn4cccn4)c3)n2)c1 [Cmd 75]	–	3	–
Clc1cccc(Nc2cncc(-c3cncc(NCCCc4ccncc4)c3)n2)c1 [Cmd 71]	–	> 100	–
Clc1cccc(Nc2cncc(-c3cncc(NCCCN4CCCCC4)c3)n2)c1 [Cmd 73]	1.36	7.2	–
Clc1cccc(Nc2cncc(-c3cncc(NCCCc4cccnc4)c3)n2)c1 [Cmd 72]	–	9.7	–
CN(C)CCNc1cncc(-c2cncc(Nc3cccc(Cl)c3)n2)c1 [Cmd 33, N′-[5-[6-[(3-chlorophenyl)amino]pyrazinyl]-3-pyridinyl]-N^2,N^2-dimethyl-1,2-ethanediamine]	3.96	–	~10
CN(C)CCCNc1cncc(-c2cncc(Nc3cccc(Cl)c3)n2)c1 [Cmd 35]	14.5	–	~10
